One assay has as its target T1, Rat Steroid C17-20-Lyase (Rattus norvegicus, UniProt P11715).
T1 construct: testicular microsomes were prepared by a series of centrifugation; from tissue; host or cells: testicular microsomes of 13-week old male SD rats
T1 sequence (P11715 1-507): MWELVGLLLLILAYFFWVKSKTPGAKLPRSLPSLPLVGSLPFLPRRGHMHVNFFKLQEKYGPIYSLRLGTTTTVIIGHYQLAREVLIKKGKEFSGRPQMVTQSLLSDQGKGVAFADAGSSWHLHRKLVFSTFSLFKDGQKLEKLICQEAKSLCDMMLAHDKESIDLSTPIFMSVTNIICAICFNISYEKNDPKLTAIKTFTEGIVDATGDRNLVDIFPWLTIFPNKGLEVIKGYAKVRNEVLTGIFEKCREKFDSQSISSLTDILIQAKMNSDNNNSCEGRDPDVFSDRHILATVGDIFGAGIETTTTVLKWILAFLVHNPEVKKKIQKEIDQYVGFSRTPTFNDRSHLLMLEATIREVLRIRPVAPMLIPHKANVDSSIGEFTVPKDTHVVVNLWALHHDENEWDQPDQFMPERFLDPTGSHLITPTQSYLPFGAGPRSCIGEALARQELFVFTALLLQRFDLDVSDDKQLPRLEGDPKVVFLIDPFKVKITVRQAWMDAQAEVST
The experiment in a line: Assay of inhibitory activity on rat steroid C17-20-lyase in vitro. The settings on record: rat testicular microsomes, 10 nM [1,2-3H]-17-α-hydroxyprogesterone, NADPH, 7 min at 37° C.; products testosterone and androstenedione reduced by 50%. In kind it is biochemical. As to the method:
Assay of Inhibitory Activity on Rat Steroid C17-20-Lyase In Vitro
Inhibitory activity was determined according to the method described in The Prostate, vol.26, 140-150(1995) with some modifications.
Testes excised from 13-week old, male SD rats were homogenized, and testicular microsomes were prepared by a series of centrifugation. The microsome protein (7 μg/10 μl) was added to 10 μl of 100 mM phosphate buffer (pH 7.4) in which 10 nM (final concentration) [1,2-3H]-17-α-hydroxyprogesterone, NADPH, and test compounds were dissolved. The reaction mixture was incubated for 7 min at 37° C., terminated by addition of 40 μl of Ethyl acetate, and briefly centrifuged. The substrate and the products (testosterone and androstenedione) in the upper phase were separated by silica gel thin layer chromatography. Detection of the spots and measurement of the radioactivity were performed by a BAS 2000 Bioimage analyzer. The concentration of the test compounds necessary to reduce the concentration of the products by 50% (The concentration in the control group in which no test compound was added was taken as 100%) was calculated, and shown in Table 1.

The test system of assay [1] is testosterone biosynthesis. Put plainly: Assay of inhibitory activity on testosterone biosynthesis in rat. The settings on record: male SD rats, oral, 50 mg/kg, serum testosterone 2 h later, percentage of control group. In kind it is in vivo. As to the method:
Assay of Inhibitory Activity on Testosterone Biosynthesis in Rat
Test compounds were orally administered to 9-week old, male SD (Spague-Dawley) rats at a dose of 50 mg/kg. Two-h later blood was taken and testosterone concentration in serum was measured by radioimmunoassay. The percentage of the testosterone concentration of the groups of rats, which received test compounds, to that of the control group was calculated, and regarded as the inhibitory activity.

Six molecules from patent US6573289B1, “Naphthalene derivatives, their production and use” (Takeda Chemical Industries, Ltd., priority 1998, dated 2003) can be followed below.

The structures appear in SMILES notation. Structures can show the parent of a compound that is named as a salt.

Usually IC50 stands for the concentration that gives 50% inhibition. The low end stands for greater potency in that assay, the high end for weaker potency in that assay. Take `COc1ccc2cc(C(O)(c3c[nH]cn3)C(C)C)ccc2c1` (stereo not drawn) [Example 1, 1-(1H-Imidazol-4-yl)-1-(6-methoxynaphthalen-2-yl)-2-methyl-1-propanol]: inhibition on Rat Steroid C17-20-Lyase was half-maximal at 33 nM (IC50). For the same molecule, the “Inhibitory activity on testosterone biosynthesis (T/C, %)” value (“Inhibitory activity … (T/C, %)” for short) in assay [1] was 2.0%.
In the case of `COc1ccc2cc(C(O)(c3c[nH]cn3)C3CC3)ccc2c1` (stereo not drawn) [Example 4, Cyclopropyl-(6-methoxynaphthalen-2-yl)-(1H-imidazol-4-yl)methanol Fumarate], the IC50 against Rat Steroid C17-20-Lyase was 64 nM.
In turn, `COc1ccc2cc(C(O)(c3ccncc3)C(C)C)ccc2c1` (stereo not drawn) [Example 9, 1-(6-Methoxynaphthalen-2-yl)-2-methyl-1-(pyridin-4-yl)-1-propanol] showed an IC50 on Rat Steroid C17-20-Lyase of 32 nM.
The molecule `COc1ccc2cc(C(O)(c3c[nH]cn3)C(C)C)ccc2c1F` (stereo not drawn) [Example 11, 1-(5-Fluoro-6-methoxynaphthalen-2-yl)-1-(1H-imidazol-4-yl)-2-methyl-1-propanol] returned an IC50 against Rat Steroid C17-20-Lyase of 32 nM. Besides, the “Inhibitory activity … (T/C, %)” value in assay [1] turned out to be 9.0%.
`CCC(O)(c1ccc2cc(OC)ccc2c1)c1c[nH]cn1` (stereo not drawn) [Example 12, 1-(1H-Imidazol-4-yl)-1-(6-methoxynaphthalen-2-yl)-1-propanol]: half-maximal inhibition on Rat Steroid C17-20-Lyase (IC50) was put at 41 nM. The “Inhibitory activity … (T/C, %)” value in assay [1] came out at 10%.
`COc1ccc2cc(C(C)(OC)c3c[nH]cn3)ccc2c1` (stereo not drawn) [Example 19, 4-[1-Methoxy-1-(6-methoxynaphthalen-2-yl)ethyl]-1H-imidazole] returned an IC50 on Rat Steroid C17-20-Lyase of 35 nM.
